Experimental data as given in publication PMC8587101, “Design and Synthesis of Novel Betulin Derivatives Containing Thio-/Semicarbazone Moieties as Apoptotic Inducers through Mitochindria-Related Pathways” (Molecules, 2021).
Where “and” joins values, the source holds several entries; their conditions need not be identical. Equal values may be shown once. Read-outs that look alike come from different tables or passages of the source.

Legend:
[1] = test system: normal human gastric epithelial cells (GES-1); assay: MTT cytotoxicity assay, GES-1 normal cells; assay type: cell-based; details: read-out: IC50 (μM) GES-1
[2] = test system: human lung carcinoma cells (A549); assay: MTT cytotoxicity assay, A549; assay type: cell-based; details: read-out: IC50 (μM) A549
[3] = test system: human breast carcinoma cells (MCF-7); assay: MTT cytotoxicity assay, MCF-7; assay type: cell-based; details: read-out: IC50 (μM) MCF-7
[4] = test system: human colorectal cells (HCT-116); assay: MTT cytotoxicity assay, HCT-116; assay type: cell-based; details: read-out: IC50 (μM) HCT-116
[5] = GES1, MTT, 48 h, normal cells, means ± SD of three experiments, “-” not active
[6] = A549, MTT, 48 h, means ± SD of three experiments
[7] = Homo sapiens, MCF7, 48 h, MTT, 48 h, means ± SD of three experiments
[8] = MTT, 48 h, means ± SD of three experiments
[9] = HCT-116, MTT, 48 h, means ± SD of three experiments

SMILES | IC50 [1, 5] | IC50 [2, 6] | melting point | IC50 [3, 7] | IC50 [3, 8] | IC50 [4, 9] | IC50 ([1]; GES1, 48 h) | IC50 ([2]; A549, 48 h) | IC50 ([3]; Homo sapiens, MCF7, 48 h) | IC50 ([4]; HCT-116, 48 h)
C=C(C)[C@@H]1CC[C@]2(/C=N/NC(=S)Nc3ccc(F)cc3)CC[C@]3(C)C(CCC4[C@@]5(C)CC[C@H](O)C(C)(C)C5CC[C@]43C)C12 (stereo partly drawn) [Compound 8a, Lup-20(29)-ene-3β-ol-28-N-(4-fluorophenyl)thiosemicarbazide] | 177 ± 5.02 µM | 24.1 ± 1.11 µM | 209.3 to 211 °C | < 10 µM | 9.8 ± 0.58 µM | 32.5 ± 1.26 µM |  |  |  | 
C=C(C)[C@@H]1CC[C@]2(CO)CC[C@]3(C)[C@H](CC[C@@H]4[C@@]5(C)CC[C@H](O)C(C)(C)[C@@H]5CC[C@]43C)[C@@H]12 [Compound 1, lup-20(29)-ene-3β,28-diol, reference compound] |  |  |  |  |  |  | 108 ± 4.34 µM | 27.1 ± 1.2 µM | 19.4 ± 0.93 µM | 30 ± 1.22 µM
C=C(C)[C@@H]1CC[C@]2(/C=N/NC(=S)Nc3ccc(C(C)(C)C)cc3)CC[C@]3(C)C(CCC4[C@@]5(C)CC[C@H](O)C(C)(C)C5CC[C@]43C)C12 (stereo partly drawn) [Compound 8e, Lup-20(29)-ene-3β-ol-28-N-(4-tert-butylphenyl)thiosemicarbazide] | > 80 µM | > 80 µM | 216.8 to 218.2 °C | 46.4 ± 3.42 µM |  | > 80 µM |  |  |  | 
CO[C@@]12[C@H](COC(N)=O)C3=C(C(=O)C(C)=C(N)C3=O)N1C[C@@H]1N[C@@H]12 [Mitomycin, Mitomycin C, reference compound] | 20.5 ± 1.02 µM | 12.8 ± 1.08 µM |  | 15.9 ± 1.03 µM |  | 11.4 ± 0.87 µM |  |  |  | 
C=C(C)[C@@H]1CC[C@]2(/C=N/NC(=O)Nc3ccc(OC)cc3)CC[C@]3(C)C(CCC4[C@@]5(C)CC[C@H](O)C(C)(C)C5CC[C@]43C)C12 (stereo partly drawn) [Compound 7c, Lup-20(29)-ene-3β-ol-28-N-(4-methoxyphenyl)semicarbazide] | > 80 µM | > 80 µM | 214.2 to 216 °C | 44.4 ± 2.26 µM |  | > 80 µM |  |  |  | 
C=C(C)[C@@H]1CC[C@]2(/C=N/NC(=O)Nc3ccc(C(F)(F)F)cc3)CC[C@]3(C)C(CCC4[C@@]5(C)CC[C@H](O)C(C)(C)C5CC[C@]43C)C12 (stereo partly drawn) [Compound 7d, Lup-20(29)-ene-3β-ol-28-N-(4-(trifluoromethyl)phenyl)semicarbazide] | 168 ± 4.59 µM | 29.4 ± 1.12 µM | 221.5 to 222.7 °C | 15.3 ± 1.23 µM |  | 28.6 ± 1.36 µM |  |  |  | 
C=C(C)[C@@H]1CC[C@]2(/C=N/NC(=O)Nc3ccc(Cl)cc3)CC[C@]3(C)C(CCC4[C@@]5(C)CC[C@H](O)C(C)(C)C5CC[C@]43C)C12 (stereo partly drawn) [Compound 7a, Lup-20(29)-ene-3β-ol-28-N-(4-chlorophenyl)semicarbazide] | 70.8 ± 2.12 µM | 18.1 ± 1.03 µM | 227.2 to 228.3 °C | 8.57 ± 0.6 µM |  | 34.8 ± 1.25 µM |  |  |  | 
C=C(C)[C@@H]1CC[C@]2(/C=N/NC(=S)Nc3ccc(C)cc3)CC[C@]3(C)C(CCC4[C@@]5(C)CC[C@H](O)C(C)(C)C5CC[C@]43C)C12 (stereo partly drawn) [Compound 8c, Lup-20(29)-ene-3β-ol-28-N-(p-tolyl)thiosemicarbazide] | > 80 µM | > 80 µM | 206.4 to 208.2 °C | 28.6 ± 1.06 µM |  | 46.3 ± 1.77 µM |  |  |  | 
C=C(C)[C@@H]1CC[C@]2(/C=N/NC(=S)Nc3ccc(Cl)cc3)CC[C@]3(C)C(CCC4[C@@]5(C)CC[C@H](O)C(C)(C)C5CC[C@]43C)C12 (stereo partly drawn) [Compound 8b, Lup-20(29)-ene-3β-ol-28-N-(4-chlorophenyl)thiosemicarbazide] | 203 ± 5.74 µM | 18.7 ± 0.98 µM | 212.5 to 214 °C | < 10 µM | 7.79 ± 0.45 µM | 49.5 ± 1.44 µM |  |  |  | 
C=C(C)[C@@H]1CC[C@]2(/C=N/NC(=S)Nc3ccc(OC)cc3)CC[C@]3(C)C(CCC4[C@@]5(C)CC[C@H](O)C(C)(C)C5CC[C@]43C)C12 (stereo partly drawn) [Compound 8d, Lup-20(29)-ene-3β-ol-28-N-(4-methoxyphenyl)thiosemicarbazide] | > 80 µM | > 80 µM | 203.7 to 205.2 °C | 38.4 ± 1.58 µM |  | > 80 µM |  |  |  | 
C=C(C)[C@@H]1CC[C@]2(/C=N/NC(=O)Nc3ccc(C#N)cc3)CC[C@]3(C)C(CCC4[C@@]5(C)CC[C@H](O)C(C)(C)C5CC[C@]43C)C12 (stereo partly drawn) [Compound 7b, Lup-20(29)-ene-3β-ol-28-N-(4-cyanophenyl)semicarbazide] | 85.4 ± 3.37 µM | 25.1 ± 1.01 µM | 236.5 to 238 °C | < 10 µM | 7.88 ± 0.54 µM | 51.1 ± 2.52 µM |  |  |  | 
C=C(C)[C@@H]1CC[C@]2(/C=N/NC(=O)Nc3ccc(Cl)c(C(F)(F)F)c3)CC[C@]3(C)C(CCC4[C@@]5(C)CC[C@H](O)C(C)(C)C5CC[C@]43C)C12 (stereo partly drawn) [Compound 7g, Lup-20(29)-ene-3β-ol-28-N-((3-trifluoromethyl-4-chloro)phenyl)semicarbazide] | 145 ± 3.88 µM | 33.6 ± 1.15 µM | 211.6 to 213 °C | < 10 µM | 7.06 ± 0.44 µM | 13.5 ± 0.74 µM |  |  |  | 
C=C(C)[C@@H]1CC[C@]2(/C=N/NC(=S)Nc3ccc(Cl)c(Cl)c3)CC[C@]3(C)C(CCC4[C@@]5(C)CC[C@H](O)C(C)(C)C5CC[C@]43C)C12 (stereo partly drawn) [Compound 8g, Lup-20(29)-ene-3β-ol-28-N-(3,4-dichlorophenyl)thiosemicarbazide] | 174 ± 5.14 µM | 16.9 ± 1.05 µM | 219.8 to 221.8 °C | 11.3 ± 1.07 µM |  | 20.2 ± 0.87 µM |  |  |  | 
C=C(C)[C@@H]1CC[C@]2(/C=N/NC(=O)Nc3cccc(C)c3)CC[C@]3(C)C(CCC4[C@@]5(C)CC[C@H](O)C(C)(C)C5CC[C@]43C)C12 (stereo partly drawn) [Compound 7f, Lup-20(29)-ene-3β-ol-8-N-(m-tolyl)semicarbazide] | > 80 µM | > 80 µM | 224.2 to 226 °C | 26.8 ± 1.34 µM |  | > 80 µM |  |  |  | 
C=C(C)[C@@H]1CC[C@]2(/C=N/NC(=O)Nc3cccc(C(F)(F)F)c3)CC[C@]3(C)C(CCC4[C@@]5(C)CC[C@H](O)C(C)(C)C5CC[C@]43C)C12 (stereo partly drawn) [Compound 7e, Lup-20(29)-ene-3β-ol-28-N-(3-(trifluoromethyl)phenyl)semicarbazide] | 196 ± 5.82 µM | 43.8 ± 1.44 µM | 223.4 to 225.1 °C | < 10 µM | 5.86 µM and 5.96 µM | 26.1 ± 1.17 µM |  |  |  | 
